Experimental data from EP1285918A1, “C7 Ester substituted taxanes as antitumor agents” (Florida State University Research Foundation, Inc., priority 2001, dated 2003).

Test system: HCT116
Experiment: In Vitro cytotoxicity measured by the cell colony formation assay
Format: cell-based
Details: Homo sapiens, HCT-116; 72 h drug incubation, colonies counted after 7 days; concentration producing 50% inhibition of colony formation; read-out: IN VITRO ID 50 (nm) HCT116
Description: In Vitro cytotoxicity measured by the cell colony formation assay
Four hundred cells (HCT116) were plated in 60 mm Petri dishes containing 2.7 mL of medium (modified McCoy's 5a medium containing 10% fetal bovine serum and 100 units/mL penicillin and […] streptomycin). The cells were incubated in a CO2 incubator at 37 °C for 5 h for attachment to the bottom of Petri dishes. The compounds identified in Example 2 were made up fresh in medium at ten times the final concentration, and then 0.3 mL of this stock solution was added to the 2.7 mL of medium in the dish. The cells were then incubated with drugs for 72 h at 37 ° C. At the end of incubation the drug-containing media were decanted, the dishes were rinsed with 4 mL of Hank's Balance Salt Solution (HBSS), 5 mL of fresh medium was added, and the dishes were returned to the incubator for colony formation. The cell colonies were counted using a colony counter after incubation for 7 days. Cell survival was calculated and the values of ID50 (the drug concentration producing 50% inhibition of colony formation) were determined for each tested compound.

SMILES	IC50 [µM]
CCC(=O)O[C@H]1C[C@H]2OC[C@@]2(OC(C)=O)[C@H]2[C@H](OC(=O)c3ccccc3)[C@]3(O)C[C@H](OC(=O)[C@H](O)[C@@H](NC(=O)OCC(C)C)c4ccoc4)C(C)=C([C@@H](O)C(=O)[C@]12C)C3(C)C [Compound 4787]	< 0.01
CCCC(=O)O[C@H]1C[C@H]2OC[C@@]2(OC(C)=O)[C@H]2[C@H](OC(=O)c3ccccc3)[C@]3(O)C[C@H](OC(=O)[C@H](O)[C@@H](NC(=O)OCC(C)C)c4ccoc4)C(C)=C([C@@H](O)C(=O)[C@]12C)C3(C)C [Compound 4828]	< 0.01
C/C=C/C(=O)N[C@@H](c1ccoc1)[C@@H](O)C(=O)O[C@H]1C[C@@]2(O)[C@@H](OC(=O)c3ccccc3)[C@@H]3[C@]4(OC(C)=O)CO[C@@H]4C[C@H](OC(=O)CC)[C@@]3(C)C(=O)[C@H](O)C(=C1C)C2(C)C [Compound 4898]	< 0.001
C/C=C/C(=O)N[C@@H](c1ccoc1)[C@@H](O)C(=O)O[C@H]1C[C@@]2(O)[C@@H](OC(=O)c3ccccc3)[C@@H]3[C@]4(OC(C)=O)CO[C@@H]4C[C@H](OC(=O)CCC)[C@@]3(C)C(=O)[C@H](O)C(=C1C)C2(C)C [Compound 4939]	< 0.001
CCC(=O)O[C@H]1C[C@H]2OC[C@@]2(OC(C)=O)[C@H]2[C@H](OC(=O)c3ccccc3)[C@]3(O)C[C@H](OC(=O)[C@H](O)[C@@H](NC(=O)OC(C)(C)C)C4CC4)C(C)=C([C@@H](O)C(=O)[C@]12C)C3(C)C [Compound 5070]	< 0.01
CCCC(=O)O[C@H]1C[C@H]2OC[C@@]2(OC(C)=O)[C@H]2[C@H](OC(=O)c3ccccc3)[C@]3(O)C[C@H](OC(=O)[C@H](O)[C@@H](NC(=O)OC(C)(C)C)C4CC4)C(C)=C([C@@H](O)C(=O)[C@]12C)C3(C)C [Compound 5080]	< 0.001
CCC(=O)O[C@H]1C[C@H]2OC[C@@]2(OC(C)=O)[C@H]2[C@H](OC(=O)c3ccccc3)[C@]3(O)C[C@H](OC(=O)[C@H](O)[C@H](C=C(C)C)NC(=O)OCC(C)C)C(C)=C([C@@H](O)C(=O)[C@]12C)C3(C)C [Compound 5121]	0.0211
CCCC(=O)O[C@H]1C[C@H]2OC[C@@]2(OC(C)=O)[C@H]2[C@H](OC(=O)c3ccccc3)[C@]3(O)C[C@H](OC(=O)[C@H](O)[C@H](C=C(C)C)NC(=O)OCC(C)C)C(C)=C([C@@H](O)C(=O)[C@]12C)C3(C)C [Compound 5131]	< 0.01
CCC(=O)O[C@H]1C[C@H]2OC[C@@]2(OC(C)=O)[C@H]2[C@H](OC(=O)c3ccccc3)[C@]3(O)C[C@H](OC(=O)[C@H](O)[C@@H](NC(=O)OCC(C)C)C4CC4)C(C)=C([C@@H](O)C(=O)[C@]12C)C3(C)C [Compound 5191]	< 0.01
CCCC(=O)O[C@H]1C[C@H]2OC[C@@]2(OC(C)=O)[C@H]2[C@H](OC(=O)c3ccccc3)[C@]3(O)C[C@H](OC(=O)[C@H](O)[C@@H](NC(=O)OCC(C)C)C4CC4)C(C)=C([C@@H](O)C(=O)[C@]12C)C3(C)C [Compound 5202]	< 0.01
CC(=O)O[C@@]12CO[C@@H]1C[C@H](OC(=O)C(C)C)[C@@]1(C)C(=O)[C@H](O)C3=C(C)[C@@H](OC(=O)[C@H](O)[C@@H](NC(=O)C(C)C)c4ccco4)C[C@@](O)([C@@H](OC(=O)c4ccccc4)[C@H]21)C3(C)C [Compound 6121]	< 0.01
C/C=C/C(=O)N[C@@H](c1ccco1)[C@@H](O)C(=O)O[C@H]1C[C@@]2(O)[C@@H](OC(=O)c3ccccc3)[C@@H]3[C@]4(OC(C)=O)CO[C@@H]4C[C@H](OC(=O)C(C)C)[C@@]3(C)C(=O)[C@H](O)C(=C1C)C2(C)C [Compound 6202]	< 0.001
CCC(=O)O[C@H]1C[C@H]2OC[C@@]2(OC(C)=O)[C@H]2[C@H](OC(=O)c3ccccc3)[C@]3(O)C[C@H](OC(=O)[C@H](O)[C@@H](NC(=O)OC(C)(C)CC)c4ccco4)C(C)=C([C@@H](O)C(=O)[C@]12C)C3(C)C [Compound 6212]	< 0.001
CCC(C)(C)OC(=O)N[C@@H](c1ccco1)[C@@H](O)C(=O)O[C@H]1C[C@@]2(O)[C@@H](OC(=O)c3ccccc3)[C@@H]3[C@]4(OC(C)=O)CO[C@@H]4C[C@H](OC(=O)C(C)C)[C@@]3(C)C(=O)[C@H](O)C(=C1C)C2(C)C [Compound 6252]	< 0.001
CCCC(=O)O[C@H]1C[C@H]2OC[C@@]2(OC(C)=O)[C@H]2[C@H](OC(=O)c3ccccc3)[C@]3(O)C[C@H](OC(=O)[C@H](O)[C@@H](NC(=O)OC(C)(C)CC)c4ccco4)C(C)=C([C@@H](O)C(=O)[C@]12C)C3(C)C [Compound 6272]	< 0.001
CCC(C)(C)OC(=O)N[C@@H](c1ccco1)[C@@H](O)C(=O)O[C@H]1C[C@@]2(O)[C@@H](OC(=O)c3ccccc3)[C@@H]3[C@]4(OC(C)=O)CO[C@@H]4C[C@H](OC(=O)CC(C)C)[C@@]3(C)C(=O)[C@H](O)C(=C1C)C2(C)C [Compound 6282]	< 0.01
CC(=O)O[C@@]12CO[C@@H]1C[C@H](OC(=O)C(C)C)[C@@]1(C)C(=O)[C@H](O)C3=C(C)[C@@H](OC(=O)[C@H](O)[C@@H](NC(=O)OC(C)(C)C)c4cccs4)C[C@@](O)([C@@H](OC(=O)c4ccccc4)[C@H]21)C3(C)C [Compound 6333]	< 0.001
CCCCC(=O)O[C@H]1C[C@H]2OC[C@@]2(OC(C)=O)[C@H]2[C@H](OC(=O)c3ccccc3)[C@]3(O)C[C@H](OC(=O)[C@H](O)[C@@H](NC(=O)OC(C)(C)CC)c4ccco4)C(C)=C([C@@H](O)C(=O)[C@]12C)C3(C)C [Compound 6343]	< 0.01
CCC(=O)O[C@H]1C[C@H]2OC[C@@]2(OC(C)=O)[C@H]2[C@H](OC(=O)c3ccccc3)[C@]3(O)C[C@H](OC(=O)[C@H](O)[C@@H](NC(=O)OC(C)(C)C)c4nccs4)C(C)=C([C@@H](O)C(=O)[C@]12C)C3(C)C [Compound 6363]	< 0.01
C/C=C/C(=O)O[C@H]1C[C@H]2OC[C@@]2(OC(C)=O)[C@H]2[C@H](OC(=O)c3ccccc3)[C@]3(O)C[C@H](OC(=O)[C@H](O)[C@@H](NC(=O)OC(C)(C)C)c4cccs4)C(C)=C([C@@H](O)C(=O)[C@]12C)C3(C)C [Compound 6686]	< 0.001
